Results: US6737383B1, “Herbicidal oxadiazolidines” (priority 1999, dated 2004)

Experiments:
cocklebur = test: Test B pre/postemergence cocklebur; assay type: in vivo, Xanthium strumarium
In short: (§1)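 Test chemicals in a non-phytotoxic solvent mixture with surfactant were sprayed preemergence onto planted seeds and postemergence onto plants 2 to 18 cm tall (1- to 4-leaf stage). After twelve to sixteen days in a greenhouse, injury was visually rated against untreated controls from 0 (no effect) to 10 (complete control).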

rape = test: Test B pre/postemergence rape; assay type: in vivo, Brassica napus
In short: as §1

corn = test: Test B pre/postemergence corn; assay type: in vivo, Zea mays
In short: as §1

morningglory = test: Test B pre/postemergence morningglory; assay type: in vivo, Ipomoea hederacea
In short: as §1

wheat = test: Test B pre/postemergence wheat; assay type: in vivo, Triticum aestivum
In short: as §1

soybean = test: Test B pre/postemergence soybean; assay type: in vivo, Glycine max
In short: as §1

bedstraw = test: Test B pre/postemergence bedstraw; assay type: in vivo, Galium aparine; settings: Preemergence
In short: as §1

duck salad = test: Test B flood test duck salad; assay type: in vivo, Heteranthera limosa
In short: (§2)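 Read-out is a visual response score from 0 (no effect) to 10 (complete control), assigned by comparison with untreated controls. Treatment was applied at the 2-leaf stage, and plants stayed in the greenhouse for twelve to sixteen days before scoring.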

rice = test: Test B flood test rice; assay type: in vivo, Oryza sativa
In short: as §2

sugar beet = test: Test B pre/postemergence sugar beet; assay type: in vivo, Beta vulgaris
In short: as §1

blackgrass = test: Test B pre/postemergence blackgrass; assay type: in vivo, Alopecurus myosuroides
In short: as §1

purple nutsedge = test: Test B pre/postemergence purple nutsedge; assay type: in vivo, Cyperus rotundus
In short: as §1

velvetleaf = test: Test B pre/postemergence velvetleaf; assay type: in vivo, Abutilon theophrasti
In short: as §1

bamyardgrass = test: Test B flood test barnyardgrass; assay type: in vivo, Echinochloa crus-galli
In short: as §2

crabgrass = test: Test B pre/postemergence crabgrass; assay type: in vivo, Digitaria sanguinalis
In short: as §1

pigweed = test: Test B pre/postemergence pigweed; assay type: in vivo, Amaranthus retroflexus
In short: as §1

wild oat = test: Test B pre/postemergence wild oat; assay type: in vivo, Avena fatua
In short: as §1

giant foxtail = test: Test B pre/postemergence giant foxtail; assay type: in vivo, Setaria faberii
In short: as §1

smallflower flatsedge = test: Test B flood test smallflower flatsedge; assay type: in vivo, Cyperus difformis
In short: as §2

surinam grass = test: Test B pre/postemergence surinam grass; assay type: in vivo, Brachiaria decumbens
In short: as §1

[1] = Preemergence, Rate 62 g/ha, scale of 0 to 10 where 0 is no effect and 10 is complete control
[2] = Preemergence, Rate 125 g/ha, scale of 0 to 10 where 0 is no effect and 10 is complete control
[3] = Preemergence, Rate 250 g/ha, scale 0 (no effect) to 10 (complete control)
[4] = Preemergence, Rate 500 g/ha, scale of 0 to 10 where 0 is no effect and 10 is complete control
[5] = Rate 125 g/ha, scale of 0 to 10 where 0 is no effect and 10 is complete control
[6] = Pre-emergence, Rate 62 g/ha, scale 0 to 10, 0 is no effect, 10 is complete control
[7] = Rate 125 g/ha, Pre-emergence section (flood test species), scale 0 to 10, 0 no effect, 10 complete control
[8] = Rate 250 g/ha, Pre-emergence (flood test species), scale 0 to 10, 0 is no effect, 10 is complete control
[9] = Rate 500 g/ha, Pre-emergence section of Table B, 0 to 10 scale (0 no effect, 10 complete control)
[10] = Postemergence, Rate 62 g/ha, scale of 0 to 10, 0 is no effect, 10 is complete control
[11] = Postemergence, Rate 125 g/ha, scale of 0 to 10 where 0 is no effect and 10 is complete control
[12] = Postemergence, Rate 250 g/ha, scale of 0 to 10, 0 is no effect, 10 is complete control
[13] = Postemergence, Rate 500 g/ha, scale of 0 to 10 where 0 is no effect and 10 is complete control
[14] = Preemergence, Rate 62 g/ha, scale 0 to 10 (0 no effect, 10 complete control)
[15] = Rate 62 g/ha, flood test species, Pre-emergence, visual evaluation after twelve to sixteen days
[16] = Rate 125 g/ha, under heading Pre-emergence, flood test species, visual evaluation after twelve to sixteen days

CC(C)N(C(=O)n1oc(=O)n(CC2CCCCO2)c1=O)c1ccc(F)cc1F (stereo not drawn) [Compound 715]
6: Velvetleaf plant response rating (velvetleaf; [3])
9: Blackgrass plant response rating (blackgrass; [1]) | Plant response rating, Blackgrass (blackgrass; [2]) | Blackgrass plant response rating (blackgrass; [3]) | Crabgrass plant response rating (crabgrass; [1]) | Plant response rating, Crabgrass (crabgrass; [2]) | Plant response rating, Redroot pigweed (pigweed; [2]) | Wild oats plant response rating (wild oat; [1]) | Plant response rating, Wild oats (wild oat; [2]) | Wild oats plant response rating (wild oat; [3]) | B. signalgrass plant response rating (surinam grass; [3])
0: Cocklebur plant response rating (cocklebur; [1]) | Plant response rating, Cocklebur (cocklebur; [2]) | Cocklebur plant response rating (cocklebur; [3]) | Plant response rating, Cocklebur (cocklebur; [4]) | Corn plant response rating (corn; [1]) | Plant response rating, Corn (corn; [2]) | Morningglory plant response rating (morningglory; [1]) | Wheat plant response rating (wheat; [1]) | Plant response rating, Wheat (wheat; [2]) | Soybean plant response rating (soybean; [1]) | Plant response rating, Soybean (soybean; [2]) | Soybean plant response rating (soybean; [3]) | Bedstraw plant response rating (bedstraw; Rate 62 g/ha, scale of 0 to 10 where 0 is no effect and 10 is complete control) | Plant response rating, Bedstraw (bedstraw; [5]) | Bedstraw plant response rating (bedstraw; Rate 250 g/ha, scale 0 (no effect) to 10 (complete control)) | Ducksalad plant response rating (duck salad; [6]) | Ducksalad plant response rating (duck salad; [7]) | Ducksalad plant response rating (duck salad; [8]) | Ducksalad plant response rating (duck salad; [9]) | Rice plant response rating (rice; [6]) | Rice plant response rating (rice; [7]) | Rice plant response rating (rice; [8]) | Rice plant response rating (rice; [9]) | Nutsedge plant response rating (purple nutsedge; [1]) | Plant response rating, Nutsedge (purple nutsedge; [2]) | Nutsedge plant response rating (purple nutsedge; [3]) | Velvetleaf plant response rating (velvetleaf; [1]) | Barnyardgrass plant response rating (bamyardgrass; [6]) | Barnyardgrass plant response rating (bamyardgrass; [7]) | Barnyardgrass plant response rating (bamyardgrass; [8]) | Barnyardgrass plant response rating (bamyardgrass; [9]) | S. Flatsedge plant response rating (smallflower flatsedge; [6]) | S. Flatsedge plant response rating (smallflower flatsedge; [7]) | S. Flatsedge plant response rating (smallflower flatsedge; [8]) | S. Flatsedge plant response rating (smallflower flatsedge; [9])
10: Plant response rating, Blackgrass (blackgrass; [4]) | Crabgrass plant response rating (crabgrass; [3]) | Redroot pigweed plant response rating (pigweed; [3]) | Giant foxtail plant response rating (giant foxtail; [1]) | Plant response rating, Giant foxtail (giant foxtail; [2]) | Giant foxtail plant response rating (giant foxtail; [3]) | Plant response rating, B. signalgrass (surinam grass; [4])
3: Wheat plant response rating (wheat; [3])
5: Plant response rating, Sugarbeets (sugar beet; [2]) | Plant response rating, Velvetleaf (velvetleaf; [2])
4: Sugarbeets plant response rating (sugar beet; [1])
1: Plant response rating, Morningglory (morningglory; [2])
2: Rape plant response rating (rape; [1]) | Corn plant response rating (corn; [3]) | Morningglory plant response rating (morningglory; [3])
7: Sugarbeets plant response rating (sugar beet; [3])
8: Plant response rating, Rape (rape; [2]) | Rape plant response rating (rape; [3]) | Redroot pigweed plant response rating (pigweed; [1]) | B. signalgrass plant response rating (surinam grass; [1]) | Plant response rating, B. signalgrass (surinam grass; [2])

CC(C)N(C(=O)n1oc(=O)n(C(CF)CF)c1=O)c1ccc(F)cc1F [Compound 595]
5: Plant response rating, Nutsedge (purple nutsedge; [13]) | Crabgrass plant response rating (crabgrass; [10])
9: Plant response rating, Sugarbeets (sugar beet; [4]) | Blackgrass plant response rating (blackgrass; [12]) | Plant response rating, Blackgrass (blackgrass; [13]) | Blackgrass plant response rating (blackgrass; [2]) | Plant response rating, Velvetleaf (velvetleaf; [4]) | Crabgrass plant response rating (crabgrass; [12]) | Plant response rating, Crabgrass (crabgrass; [13]) | Crabgrass plant response rating (crabgrass; [2]) | Plant response rating, Wild oats (wild oat; [4]) | Plant response rating, Giant foxtail (giant foxtail; [11]) | Giant foxtail plant response rating (giant foxtail; [12]) | Plant response rating, Giant foxtail (giant foxtail; [13]) | Plant response rating, Giant foxtail (giant foxtail; [4]) | B. signalgrass plant response rating (surinam grass; [4])
7: Plant response rating, Blackgrass (blackgrass; [11]) | Velvetleaf plant response rating (velvetleaf; [12]) | Plant response rating, Velvetleaf (velvetleaf; [13]) | Velvetleaf plant response rating (velvetleaf; [14]) | Velvetleaf plant response rating (velvetleaf; [2]) | Crabgrass plant response rating (crabgrass; [14]) | Plant response rating, Redroot pigweed (pigweed; [13]) | B. signalgrass plant response rating (0 to 10 scale, 0 is no effect, 10 is complete control) (surinam grass; Preemergence, Rate 250 g/ha)
0: Cocklebur plant response rating (cocklebur; [10]) | Plant response rating, Cocklebur (cocklebur; [11]) | Cocklebur plant response rating (cocklebur; [12]) | Cocklebur plant response rating (cocklebur; [2]) | Cocklebur plant response rating (0 to 10 scale) (cocklebur; Preemergence, Rate 250 g/ha) | Plant response rating, Cocklebur (cocklebur; [4]) | Rape plant response rating (rape; [10]) | Plant response rating, Rape (rape; [11]) | Corn plant response rating (corn; [10]) | Plant response rating, Corn (corn; [11]) | Corn plant response rating (corn; [14]) | Corn plant response rating (corn; [2]) | Morningglory plant response rating (morningglory; [14]) | Morningglory plant response rating (morningglory; [2]) | Plant response rating, Wheat (wheat; [11]) | Wheat plant response rating (wheat; [14]) | Soybean plant response rating (soybean; [14]) | Bedstraw plant response rating (bedstraw; Rate 62 g/ha, scale 0 to 10 (0 no effect, 10 complete control)) | Plant response rating, Ducksalad (0 to 10 scale, 0 is no effect, 10 is complete control) (duck salad; [15]) | Ducksalad plant response rating (0 to 10 scale, 0 is no effect, 10 is complete control) (duck salad; [16]) | Ducksalad plant response rating (duck salad; [8]) | Ducksalad plant response rating (duck salad; [9]) | Plant response rating, Rice (0 to 10 scale, 0 is no effect, 10 is complete control) (rice; [15]) | Rice plant response rating (0 to 10 scale, 0 is no effect, 10 is complete control) (rice; [16]) | Rice plant response rating (rice; [8]) | Rice plant response rating (rice; [9]) | Nutsedge plant response rating (purple nutsedge; [10]) | Plant response rating, Nutsedge (purple nutsedge; [11]) | Nutsedge plant response rating (purple nutsedge; [12]) | Plant response rating, Barnyardgrass (0 to 10 scale, 0 is no effect, 10 is complete control) (bamyardgrass; [15]) | Barnyardgrass plant response rating (0 to 10 scale, 0 is no effect, 10 is complete control) (bamyardgrass; [16]) | Barnyardgrass plant response rating (bamyardgrass; [8]) | Barnyardgrass plant response rating (bamyardgrass; [9]) | Plant response rating, Redroot pigweed (pigweed; [11]) | Redroot pigweed plant response rating (pigweed; [14]) | Plant response rating, Wild oats (wild oat; [11]) | Plant response rating, S. Flatsedge (0 to 10 scale, 0 is no effect, 10 is complete control) (smallflower flatsedge; [15]) | S. Flatsedge plant response rating (0 to 10 scale, 0 is no effect, 10 is complete control) (smallflower flatsedge; [16]) | S. Flatsedge plant response rating (smallflower flatsedge; [8]) | S. Flatsedge plant response rating (smallflower flatsedge; [9]) | B. signalgrass plant response rating (surinam grass; [10]) | Plant response rating, B. signalgrass (surinam grass; [11])
1: Morningglory plant response rating (morningglory; [10]) | Wheat plant response rating (wheat; [2]) | Soybean plant response rating (soybean; [2])
4: Rape plant response rating (rape; [14]) | Rape plant response rating (rape; [2]) | Corn plant response rating (0 to 10 scale) (corn; Preemergence, Rate 250 g/ha) | Soybean plant response rating (soybean; [12]) | Plant response rating, Soybean (soybean; [13]) | Plant response rating, Soybean (soybean; [4]) | Plant response rating, Nutsedge (purple nutsedge; [4]) | Plant response rating, Velvetleaf (velvetleaf; [11]) | Plant response rating, Wild oats (wild oat; [13])
2: Plant response rating, Cocklebur (cocklebur; [13]) | Rape plant response rating (rape; [12]) | Plant response rating, Rape (rape; [13]) | Corn plant response rating (corn; [12]) | Plant response rating, Morningglory (morningglory; [11]) | Wheat plant response rating (wheat; [12]) | Wild oats plant response rating (wild oat; [12]) | B. signalgrass plant response rating (surinam grass; [14])
8: Bedstraw plant response rating (bedstraw; [5]) | Sugarbeets plant response rating (sugar beet; [2]) | Plant response rating, Crabgrass (crabgrass; [11]) | Wild oats plant response rating (wild oat; [2]) | Giant foxtail plant response rating (giant foxtail; [10])
3: Plant response rating, Corn (corn; [13]) | Morningglory plant response rating (morningglory; [12]) | Plant response rating, Wheat (wheat; [13]) | Plant response rating, Sugarbeets (sugar beet; [11]) | Sugarbeets plant response rating (sugar beet; [12]) | Plant response rating, Sugarbeets (sugar beet; [13]) | Blackgrass plant response rating (blackgrass; [10]) | Nutsedge plant response rating (purple nutsedge; [2]) | Redroot pigweed plant response rating (pigweed; [12]) | Wild oats plant response rating (wild oat; [14])
6: Plant response rating, Corn (corn; [4]) | Plant response rating, Morningglory (morningglory; [13]) | Plant response rating, Morningglory (morningglory; [4]) | Plant response rating, Wheat (wheat; [4]) | Sugarbeets plant response rating (sugar beet; [14]) | Blackgrass plant response rating (blackgrass; [14]) | B. signalgrass plant response rating (surinam grass; [12]) | Plant response rating, B. signalgrass (surinam grass; [13]) | B. signalgrass plant response rating (surinam grass; [2])
10: Plant response rating, Rape (rape; [4]) | Bedstraw plant response rating (bedstraw; Rate 500 g/ha, scale of 0 to 10 where 0 is no effect and 10 is complete control) | Blackgrass plant response rating (0 to 10 scale) (blackgrass; Preemergence, Rate 250 g/ha) | Blackgrass plant response rating (blackgrass; [4]) | Plant response rating, Crabgrass (crabgrass; [4]) | Redroot pigweed plant response rating (pigweed; [2]) | Plant response rating, Redroot pigweed (pigweed; [4]) | Giant foxtail plant response rating (giant foxtail; [14]) | Giant foxtail plant response rating (giant foxtail; [2])
